This is an account of results in US20090299044A1 (priority 2006, published 2009).

Bridge positions count the residues as written; N and C are the ends. Square brackets hold non-standard residues; d marks the D form. Peptide text beside a SMILES is read from it. 1Nal = N[C@@H](Cc1cccc2ccccc12)C(=O)O

For one assay, the target named is T1, human Kv1.3 (CHO) (Homo sapiens, UniProt P22001).
T1 construct: expressed in transfected cells; host or cells: CHO
As to the kind of experiment: cell-based.

Another assay has as its target T2, human Kv1.1 (HEK293) (Homo sapiens, UniProt Q09470).
T2 construct: expressed in transfected cells; host or cells: HEK293
The assay can be described thus: cell-based.

T1 sequence (P22001 whole entry): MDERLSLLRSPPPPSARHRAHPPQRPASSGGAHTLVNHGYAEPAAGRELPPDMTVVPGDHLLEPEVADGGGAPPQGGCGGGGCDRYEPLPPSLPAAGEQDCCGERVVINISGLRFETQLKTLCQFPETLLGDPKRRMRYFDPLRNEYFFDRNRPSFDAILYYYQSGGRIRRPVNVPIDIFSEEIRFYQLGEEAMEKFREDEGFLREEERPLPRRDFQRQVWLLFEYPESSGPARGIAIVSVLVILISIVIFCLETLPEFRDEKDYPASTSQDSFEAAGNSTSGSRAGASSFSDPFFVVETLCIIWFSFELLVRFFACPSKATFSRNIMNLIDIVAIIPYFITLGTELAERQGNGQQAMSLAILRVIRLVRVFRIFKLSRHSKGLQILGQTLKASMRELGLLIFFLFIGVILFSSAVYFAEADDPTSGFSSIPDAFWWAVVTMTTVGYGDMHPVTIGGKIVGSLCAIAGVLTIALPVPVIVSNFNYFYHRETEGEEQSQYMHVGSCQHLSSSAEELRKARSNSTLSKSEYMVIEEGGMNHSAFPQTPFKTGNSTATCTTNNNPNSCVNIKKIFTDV
T2 sequence (Q09470 whole entry): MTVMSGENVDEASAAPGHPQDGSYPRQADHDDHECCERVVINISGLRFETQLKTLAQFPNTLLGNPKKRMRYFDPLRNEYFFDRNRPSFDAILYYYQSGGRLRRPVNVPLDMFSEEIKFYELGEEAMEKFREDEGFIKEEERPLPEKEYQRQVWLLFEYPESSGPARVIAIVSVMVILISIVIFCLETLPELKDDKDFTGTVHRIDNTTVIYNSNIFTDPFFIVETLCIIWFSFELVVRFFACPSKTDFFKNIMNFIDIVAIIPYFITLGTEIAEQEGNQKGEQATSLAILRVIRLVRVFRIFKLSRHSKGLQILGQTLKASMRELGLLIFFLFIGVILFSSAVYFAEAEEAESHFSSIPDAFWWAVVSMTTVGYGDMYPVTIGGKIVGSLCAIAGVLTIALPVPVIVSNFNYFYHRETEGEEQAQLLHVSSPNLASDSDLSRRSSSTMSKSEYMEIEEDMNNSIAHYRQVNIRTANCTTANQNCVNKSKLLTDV

Turning to `CC[C@H](C)[C@@H]1NC(=O)[C@H](CCCCN)NC(=O)[C@@H](NC(=O)[C@H](CCCCN)NC(=O)[C@@H](NC(=O)[C@H](CC(N)=O)NC(=O)[C@@H](NC(=O)[C@@H](NC(=O)[C@@H](NC(=O)CN)C(C)C)[C@@H](C)CC)[C@@H](C)CC)C(C)C)CSSC[C@@H]2NC(=O)[C@H](CCCCN)NC(=O)CNC(=O)[C@H](Cc3ccccc3)NC(=O)[C@H](CCCNC(=N)N)NC(=O)[C@H](CCSC)NC(=O)CNC(=O)[C@H](CCC(=O)O)NC(=O)[C@H](CCCCN)NC(=O)[C@H](CCCCN)NC(=O)[C@@H]3CSSC[C@@H](C(=O)N[C@H](C(=O)N4CCC[C@H]4C(=O)N[C@@H](CCCCN)C(=O)O)[C@@H](C)O)NC(=O)[C@H](Cc4c[nH]cn4)NC(=O)[C@H](CSSC[C@H](NC(=O)[C@H](CCC(N)=O)NC(=O)[C@H](CCCNC(=N)N)NC(=O)[C@H](CO)NC1=O)C(=O)N[C@@H](CC(C)C)C(=O)N[C@@H](CCC(=O)O)C(=O)N1CCC[C@H]1C(=O)N3)NC(=O)[C@H](CCCCN)NC(=O)CNC(=O)[C@H](CC(N)=O)NC(=O)[C@H](CCSC)NC2=O` [A21E] (H-GVIINVKCKISRQCLEPCKKEGMRFGKCMNGKCHCTPK-OH; disulfide 8-28, 14-33, 18-35), the IC50 against human Kv1.3 (CHO) was 7.37 pM; against human Kv1.1 (HEK293) it was less than 1.52 pM.

Turning to `CC[C@H](C)[C@@H]1NC(=O)[C@H](CCCCN)NC(=O)[C@@H](NC(=O)[C@H](CCCCN)NC(=O)[C@@H](NC(=O)[C@H](CC(N)=O)NC(=O)[C@@H](NC(=O)[C@@H](NC(=O)[C@@H](NC(=O)CN)C(C)C)[C@@H](C)CC)[C@@H](C)CC)C(C)C)CSSC[C@@H]2NC(=O)[C@H](CCCCN)NC(=O)CNC(=O)[C@H](Cc3ccccc3)NC(=O)[C@H](CCCNC(=N)N)NC(=O)[C@H](CCSC)NC(=O)CNC(=O)[C@H](CCCNC(=N)N)NC(=O)[C@H](CCCCN)NC(=O)[C@H](CCCCN)NC(=O)[C@@H]3CSSC[C@@H](C(=O)N[C@H](C(=O)N4CCC[C@H]4C(=O)N[C@@H](CCCCN)C(=O)O)[C@@H](C)O)NC(=O)[C@H](Cc4c[nH]cn4)NC(=O)[C@H](CSSC[C@H](NC(=O)[C@H](CCC(N)=O)NC(=O)[C@H](CCCNC(=N)N)NC(=O)[C@H](CO)NC1=O)C(=O)N[C@@H](CC(C)C)C(=O)N[C@@H](CCC(=O)O)C(=O)N1CCC[C@H]1C(=O)N3)NC(=O)[C@H](CCCCN)NC(=O)CNC(=O)[C@H](CC(N)=O)NC(=O)[C@H](CCSC)NC2=O` [A21R] (H-GVIINVKCKISRQCLEPCKKRGMRFGKCMNGKCHCTPK-OH; disulfide 8-28, 14-33, 18-35), the IC50 against human Kv1.3 (CHO) was 14.9 pM; on human Kv1.1 (HEK293), 2.61 pM.

For `CC[C@H](C)[C@@H]1NC(=O)[C@H](CCCCN)NC(=O)[C@@H](NC(=O)[C@H](CCCCN)NC(=O)[C@@H](NC(=O)[C@H](CC(N)=O)NC(=O)[C@@H](NC(=O)[C@@H](NC(=O)[C@@H](NC(=O)CN)C(C)C)[C@@H](C)CC)[C@@H](C)CC)C(C)C)CSSC[C@@H]2NC(=O)[C@H](CCCCN)NC(=O)CNC(=O)[C@H](Cc3ccccc3)NC(=O)[C@H](CCCNC(=N)N)NC(=O)[C@H](CCSC)NC(=O)CNC(=O)[C@H](C)NC(=O)[C@H](CCCCN)NC(=O)[C@H](CCCCN)NC(=O)[C@@H]3CSSC[C@@H](C(=O)N[C@H](C(=O)N4CCC[C@H]4C(=O)N[C@@H](CCCCN)C(=O)O)[C@@H](C)O)NC(=O)[C@H](Cc4c[nH]cn4)NC(=O)[C@H](CSSC[C@H](NC(=O)[C@H](CCC(N)=O)NC(=O)[C@H](CCCNC(=N)N)NC(=O)[C@H](CO)NC1=O)C(=O)N[C@@H](CC(C)C)C(=O)N[C@@H](C)C(=O)N1CCC[C@H]1C(=O)N3)NC(=O)[C@H](CCCCN)NC(=O)CNC(=O)[C@H](CC(N)=O)NC(=O)[C@H](CCSC)NC2=O` [E16A] (H-GVIINVKCKISRQCLAPCKKAGMRFGKCMNGKCHCTPK-OH; disulfide 8-28, 14-33, 18-35), the IC50 turned out to be 21.6 pM at human Kv1.3 (CHO) and 6.87 pM against human Kv1.1 (HEK293).

On to `CC[C@H](C)[C@@H]1NC(=O)[C@H](CCCCN)NC(=O)[C@@H](NC(=O)[C@H](CCCCN)NC(=O)[C@@H](NC(=O)[C@H](CC(N)=O)NC(=O)[C@@H](NC(=O)[C@@H](NC(=O)[C@@H](NC(=O)CN)C(C)C)[C@@H](C)CC)[C@@H](C)CC)C(C)C)CSSC[C@@H]2NC(=O)[C@H](CCCCN)NC(=O)CNC(=O)[C@H](Cc3ccccc3)NC(=O)[C@H](CCCNC(=N)N)NC(=O)[C@H](CCSC)NC(=O)CNC(=O)[C@H](C)NC(=O)[C@H](CCCCN)NC(=O)[C@H](CCCCN)NC(=O)[C@@H]3CSSC[C@@H](C(=O)N[C@H](C(=O)N4CCC[C@H]4C(=O)N[C@@H](CCCCN)C(=O)O)[C@@H](C)O)NC(=O)[C@H](Cc4c[nH]cn4)NC(=O)[C@H](CSSC[C@H](NC(=O)[C@H](CCC(N)=O)NC(=O)[C@H](CCCNC(=N)N)NC(=O)[C@H](CO)NC1=O)C(=O)N[C@@H](CC(C)C)C(=O)N[C@@H](Cc1cccc4ccccc14)C(=O)N1CCC[C@H]1C(=O)N3)NC(=O)[C@H](CCCCN)NC(=O)CNC(=O)[C@H](CC(N)=O)NC(=O)[C@H](CCSC)NC2=O` [E16Nal] (H-GVIINVKCKISRQCL[1Nal]PCKKAGMRFGKCMNGKCHCTPK-OH; disulfide 8-28, 14-33, 18-35), for which the IC50 on human Kv1.3 (CHO) was 9.58 pM; against human Kv1.1 (HEK293), less than 1.52 pM.

With `CC[C@H](C)[C@@H]1NC(=O)[C@H](CCCCN)NC(=O)[C@@H](NC(=O)[C@H](CCCCN)NC(=O)[C@@H](NC(=O)[C@H](CC(N)=O)NC(=O)[C@@H](NC(=O)[C@@H](NC(=O)[C@@H](NC(=O)CN)C(C)C)[C@@H](C)CC)[C@@H](C)CC)C(C)C)CSSC[C@@H]2NC(=O)[C@H](CCCCN)NC(=O)CNC(=O)[C@H](Cc3ccccc3)NC(=O)[C@H](CCCNC(=N)N)NC(=O)[C@H](CCSC)NC(=O)CNC(=O)[C@H](C)NC(=O)[C@H](CCCCN)NC(=O)[C@H](CCCCN)NC(=O)[C@@H]3CSSC[C@@H](C(=O)N[C@H](C(=O)N4CCC[C@H]4C(=O)N[C@@H](CCCCN)C(=O)O)[C@@H](C)O)NC(=O)[C@H](Cc4c[nH]cn4)NC(=O)[C@H](CSSC[C@H](NC(=O)[C@H](CCC(N)=O)NC(=O)[C@H](CCCNC(=N)N)NC(=O)[C@H](CO)NC1=O)C(=O)N[C@@H](CC(C)C)C(=O)N[C@@H](CCCNC(=N)N)C(=O)N1CCC[C@H]1C(=O)N3)NC(=O)[C@H](CCCCN)NC(=O)CNC(=O)[C@H](CC(N)=O)NC(=O)[C@H](CCSC)NC2=O` [E16R] (H-GVIINVKCKISRQCLRPCKKAGMRFGKCMNGKCHCTPK-OH; disulfide 8-28, 14-33, 18-35), the IC50 on human Kv1.3 (CHO) is 10.4 pM; at human Kv1.1 (HEK293), less than 1.52 pM.

With `CC[C@H](C)[C@@H]1NC(=O)[C@H](CCCCN)NC(=O)[C@@H](NC(=O)[C@H](CCCCN)NC(=O)[C@@H](NC(=O)[C@H](CC(N)=O)NC(=O)[C@@H](NC(=O)[C@@H](NC(=O)[C@@H](NC(=O)CN)C(C)C)[C@@H](C)CC)[C@@H](C)CC)C(C)C)CSSC[C@@H]2NC(=O)[C@H](CCCCN)NC(=O)CNC(=O)[C@H](C)NC(=O)[C@H](CCCNC(=N)N)NC(=O)[C@H](CCSC)NC(=O)CNC(=O)[C@H](C)NC(=O)[C@H](CCCCN)NC(=O)[C@H](CCCCN)NC(=O)[C@@H]3CSSC[C@@H](C(=O)N[C@H](C(=O)N4CCC[C@H]4C(=O)N[C@@H](CCCCN)C(=O)O)[C@@H](C)O)NC(=O)[C@H](Cc4c[nH]cn4)NC(=O)[C@H](CSSC[C@H](NC(=O)[C@H](CCC(N)=O)NC(=O)[C@H](CCCNC(=N)N)NC(=O)[C@H](CO)NC1=O)C(=O)N[C@@H](CC(C)C)C(=O)N[C@@H](CCC(=O)O)C(=O)N1CCC[C@H]1C(=O)N3)NC(=O)[C@H](CCCCN)NC(=O)CNC(=O)[C@H](CC(N)=O)NC(=O)[C@H](CCSC)NC2=O` [F25A] (H-GVIINVKCKISRQCLEPCKKAGMRAGKCMNGKCHCTPK-OH; disulfide 8-28, 14-33, 18-35), the values for the half-inhibitory concentration (IC50) on human Kv1.3 (CHO) and against human Kv1.1 (HEK293) were 1490 pM and 47.3 pM, respectively.

For orientation: IC50 means the concentration that inhibits the measured activity by half. Read a low IC50 as greater potency in that assay.
